Results on one molecule are retold here after article PMC6906232 (The Journal of pharmacy and pharmacology, 2019).

For the assay, the target named is D184A mutant CB1 receptor (Homo sapiens, UniProt P21554, D184A). Kind of assay: Methanandamide competition binding with [3H]CP55940 as tracer. To be noted: [3H]CP55940 tracer.
D184A mutant CB1 receptor, sequence (P21554 whole entry D184A): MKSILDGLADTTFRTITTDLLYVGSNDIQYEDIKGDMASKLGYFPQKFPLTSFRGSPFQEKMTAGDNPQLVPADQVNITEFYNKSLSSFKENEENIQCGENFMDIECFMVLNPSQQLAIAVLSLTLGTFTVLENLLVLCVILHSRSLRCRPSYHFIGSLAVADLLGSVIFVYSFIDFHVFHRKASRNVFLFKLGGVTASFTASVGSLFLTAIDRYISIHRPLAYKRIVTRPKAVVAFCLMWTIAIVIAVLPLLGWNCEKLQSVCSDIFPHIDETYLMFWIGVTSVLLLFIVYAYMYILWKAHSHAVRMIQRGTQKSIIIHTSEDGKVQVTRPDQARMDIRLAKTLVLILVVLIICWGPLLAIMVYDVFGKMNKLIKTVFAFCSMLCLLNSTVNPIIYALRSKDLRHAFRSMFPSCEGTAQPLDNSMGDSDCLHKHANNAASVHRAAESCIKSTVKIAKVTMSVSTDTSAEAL

Consider `CCCCC/C=C\C/C=C\C/C=C\C/C=C\CCCC(=O)N[C@H](C)CO` [methanandamide], for which the methanandamide binding entry by setting is: (agonist alone, no modulator) “did not bind”; (with 1 μM PSNCBAM-1) “binding was restored”.
